Source: patent US10508085B2, “Compounds and methods for IDO and TDO modulation, and indications therefor” (Plexxikon Inc., priority 2016, dated 2019)
Read-outs that look alike come from different tables or passages of the source.

Tests used:
[1] = biological target: T1, Human Indoleamine 2,3-dioxygenase (IDO) (Homo sapiens, UniProt P14902); experiment: Human IDO enzymatic assay (kynurenine level); format: biochemical; conditions: 6 nM IDO, 10 μM L-Trp; geometric mean; read-out: IDO1 GMean: IC50 (μM) (Biochemical Assay)
T1 construct: His tag (N); made in house; host or cells: E. coli
T1 sequence (P14902 whole entry): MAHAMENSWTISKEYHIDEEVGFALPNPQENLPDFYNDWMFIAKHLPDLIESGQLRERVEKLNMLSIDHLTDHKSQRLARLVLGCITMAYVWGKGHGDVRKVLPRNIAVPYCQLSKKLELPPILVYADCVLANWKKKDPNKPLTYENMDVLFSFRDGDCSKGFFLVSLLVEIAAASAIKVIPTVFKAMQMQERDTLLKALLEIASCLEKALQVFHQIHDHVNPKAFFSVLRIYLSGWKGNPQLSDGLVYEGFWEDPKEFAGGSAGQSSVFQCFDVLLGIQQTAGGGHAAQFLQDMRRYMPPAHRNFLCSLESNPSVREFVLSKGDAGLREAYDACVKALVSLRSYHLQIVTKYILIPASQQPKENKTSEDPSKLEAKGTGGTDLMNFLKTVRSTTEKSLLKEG
Procedure, shortened: (§1)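 Compound is mixed with His-tagged enzyme from E. coli in pH 6.5 phosphate buffer containing ascorbate, methylene blue and catalase, at room temperature. IDO uses 6 nM enzyme and 10 μM Trp for 20 min. TDO uses 1 nM enzyme and 350 μM Trp for 70 min. TCA stops the reaction, and IC50 is derived from kynurenine levels.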

[2] = biological target: T2, human TDO (TDO-expressing HEK293 cells) (Homo sapiens, UniProt P48775); experiment: Cell based kynurenine assay, TDO-expressing HEK293 cell clones; conditions: TDO-expressing HEK293 cells, geometric mean, read-out: HEK293 TDO Kynurenine GMean IC50 (μM) (Cellular Assay)
T2 construct: expressed in transfected cells
T2 sequence (P48775 whole entry): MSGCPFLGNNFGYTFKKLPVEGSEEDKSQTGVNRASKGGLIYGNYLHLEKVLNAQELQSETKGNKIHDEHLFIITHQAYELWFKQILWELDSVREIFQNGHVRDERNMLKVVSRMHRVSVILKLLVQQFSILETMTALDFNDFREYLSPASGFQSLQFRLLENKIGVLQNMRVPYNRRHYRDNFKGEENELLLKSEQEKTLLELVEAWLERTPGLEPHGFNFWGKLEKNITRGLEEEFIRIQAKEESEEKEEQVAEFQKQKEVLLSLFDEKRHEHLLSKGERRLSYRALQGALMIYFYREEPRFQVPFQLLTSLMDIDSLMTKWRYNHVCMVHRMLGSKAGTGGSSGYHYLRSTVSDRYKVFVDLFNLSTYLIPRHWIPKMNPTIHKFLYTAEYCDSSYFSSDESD
Procedure, shortened: (§2)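 HEK293 clones stably expressing human IDO1 or human TDO (CMV promoter), 2.5×10^4 cells/well, given serial compound dilutions for 24 h. Kynurenine measured in supernatant; inhibition relative to cell/0.2% DMSO and media-only controls. IC50 by nonlinear regression.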

[3] = biological target: T3, Human Tryptophan 2,3-dioxygenase (TDO) (Homo sapiens, UniProt P48775); experiment: Human TDO enzymatic assay (kynurenine level); format: biochemical; conditions: 1 nM TDO, 350 μM L-Trp; geometric mean; read-out: TDO GMean: IC50 (μM) (Biochemical Assay)
T3 construct: His tag (N); made in house; host or cells: E. coli
T3 sequence (P48775 whole entry): as above
Procedure, shortened: as §1

[4] = biological target: T4, human IDO (IDO1-expressing HEK293 cells) (Homo sapiens, UniProt P14902); experiment: Cell based kynurenine assay, IDO1-expressing HEK293 cell clones; conditions: IDO1-expressing HEK293 cells, geometric mean, read-out: HEK293 IDO1 Kynurenine GMean IC50 (μM) (Cellular Assay)
T4 construct: expressed in transfected cells
T4 sequence (P14902 whole entry): as the sequence (P14902 whole entry) above
Procedure, shortened: as §2

| SMILES | IC50 [1] [µM] | IC50 ([2]; 24 hours) [µM] | IC50 [3] [µM] | IC50 ([4]; 24 hours) [µM] | IC50 ([2]; 24 hours incubation) [µM] | IC50 ([4]; 24 hours incubation) [µM] |
| --- | --- | --- | --- | --- | --- | --- |
| O=S1(=O)CC(O)(c2cc(Cl)cc3cn[nH]c23)C1 [Compound P-0189, 3-(5-chloro-1H-indazol-7-yl)-3-hydroxythietane 1,1-dioxide] | > 200 |  | > 200 |  | 0.0001 to 10 | > 10 |
| O=C(Cc1ccc(Cl)cc1)N1CCC(C(F)(F)C(O)c2cc(Cl)cc3cn[nH]c23)CC1 (centres unmarked) [Compound P-0494, 1-(4-(2-(5-chloro-1H-indazol-7-yl)-1,1-difluoro-2-hydroxyethyl)piperidin-1-yl)-2-(4-chlorophenyl)ethan-1-one] | 0.0001 to 10 | 0.0001 to 10 | 0.0001 to 10 | 0.0001 to 10 |  |  |
| CC(C)(C1CCN(C(=O)NC2CC2)CC1)[C@H](O)c1c(F)c(Cl)cc2cn[nH]c12 [Compound P-0509, (S)-4-(1-(5-chloro-6-fluoro-1H-indazol-7-yl)-1-hydroxy-2-methylpropan-2-yl)-N-cyclopropylpiperidine-1-carboxamide] | 0.0001 to 10 | 0.0001 to 10 | 0.0001 to 10 | 0.0001 to 10 |  |  |
| CC(C)(C1CCCCC1)C(O)c1c(F)c(Cl)c(F)c2cn[nH]c12 (centres unmarked) [Compound P-0253, 1-(5-chloro-4,6-difluoro-1H-indazol-7-yl)-2-cyclohexyl-2-methylpropan-1-ol] | 0.0001 to 10 |  | 0.0001 to 10 |  | 0.0001 to 10 | 0.0001 to 10 |
| O=C(c1cccnc1)N1CCC(C(F)(F)C(O)c2c(F)c(Cl)cc3cn[nH]c23)CC1 (centres unmarked) [Compound P-0341, (4-(2-(5-chloro-6-fluoro-1H-indazol-7-yl)-1,1-difluoro-2-hydroxyethyl)piperidin-1-yl)(pyridin-3-yl)methanone] | 0.0001 to 10 |  | 0.0001 to 10 |  | 0.0001 to 10 | 0.0001 to 10 |

Results, then the compound that gave them:

| IC50 [1] [µM] | IC50 ([2]; 24 hours) [µM] | IC50 [3] [µM] | IC50 ([4]; 24 hours) [µM] | IC50 ([2]; 24 hours incubation) [µM] | IC50 ([4]; 24 hours incubation) [µM] | SMILES |
| --- | --- | --- | --- | --- | --- | --- |
| 0.0001 to 10 | 0.0001 to 10 | 0.0001 to 10 | 0.0001 to 10 |  |  | CC(C)(C1CCN(C(=O)CC2CCOCC2)CC1)C(O)c1cc(Cl)cc2cn[nH]c12 (centres unmarked) [Compound P-0443, 1-(4-(1-(5-chloro-1H-indazol-7-yl)-1-hydroxy-2-methylpropan-2-yl)piperidin-1-yl)-2-(tetrahydro-2H-pyran-4-yl)ethan-1-one] |
| 0.0001 to 10 | 0.0001 to 10 | 0.0001 to 10 | 0.0001 to 10 |  |  | CC(C)(C1CCN(C(=O)CO)CC1)C(O)c1cc(Cl)cc2cn[nH]c12 (centres unmarked) [Compound P-0461, 1-(4-(1-(5-chloro-1H-indazol-7-yl)-1-hydroxy-2-methylpropan-2-yl)piperidin-1-yl)-2-hydroxyethan-1-one] |
| 0.0001 to 10 |  | 0.0001 to 10 |  | 0.0001 to 10 | 0.0001 to 10 | OC(CC1CCOCC1)c1cc(Cl)cc2cn[nH]c12 (centres unmarked) [Compound P-0210, 1-(5-chloro-1H-indazol-7-yl)-2-(tetrahydro-2H-pyran-4-yl)ethan-1-ol] |
| 0.0001 to 10 |  | 0.0001 to 10 |  | 0.0001 to 10 | 0.0001 to 10 | COc1cccc(NC(=O)N2CCC(C(C)(C)C(O)c3cc(Cl)cc4cn[nH]c34)CC2)c1 (centres unmarked) [Compound P-0182, 4-(1-(5-chloro-1H-indazol-7-yl)-1-hydroxy-2-methylpropan-2-yl)-N-(3-methoxyphenyl)piperidine-1-carboxamide] |
| 0.0001 to 10 |  | 0.0001 to 10 |  | 0.0001 to 10 | 0.0001 to 10 | COc1ccccc1NC(=O)N1CCC(C(C)(C)C(O)c2cc(Cl)cc3cn[nH]c23)CC1 (centres unmarked) [Compound P-0179, 4-(1-(5-chloro-1H-indazol-7-yl)-1-hydroxy-2-methylpropan-2-yl)-N-(2-methoxyphenyl)piperidine-1-carboxamide] |
| 0.0001 to 10 |  | 0.0001 to 10 |  | > 10 | > 10 | OC1(c2cc(Cl)cc3cn[nH]c23)CC(c2ccccc2)C1 (centres unmarked) [Compound P-0201, 1-(5-chloro-1H-indazol-7-yl)-3-phenylcyclobutan-1-ol] |
